By IC50 is commonly meant the concentration at which inhibition is half-maximal. Low values mean greater potency, high ones weaker potency.

The text below walks through data of article PMC8750417, “Intracellular Amplifiers of Reactive Oxygen Species Affecting Mitochondria as Radiosensitizers” (Cancers, 2021).

The subject of one data set is AsPC1 cells. Kind of data set: Cell viability by flow cytometry, AsPC1. As to conditions: AsPC1, 72 h incubation. The data set is classed as cell-based, human. How it is done:
Table S3. Effects of the prodrugs on the viability of BL2 cell line (IC50 values) after 48 and […]
AsPC1 cells The cells (20.000/well) were seeded in a 12-well plate and incubated for 24 h. Afterwards, the medium was changed and the cells were further incubated for 72 h with medium containing different concentrations of compounds 2c and 5b. Viable cells were determined based on the morphological parameters by using flow cytometry (Table S4).
Table S4. Effects of the prodrugs on the viability of AsPC1 cell lines (IC50 values) after 72 […]
Jurkat cells The cells were counted in MUSE Cell Analyzer using MUSE® Count &Viability Assay Kit (Merck-Millipore, Billerica, MA, USA) and adjusted to a density of 1.0 x 10^5/ml in RPMI 1640 medium (with 10% FCS and 1% glutamine). 9.000 cells per well per 90 µL were seeded into 96 well culture plates. The 30 mM prodrug stock solutions in DMSO were diluted to 300 µM, 100 µM, 30 µM and 10 µM in cell culture medium and 10 µL of the dilutions was pipetted to the cells, receiving final test concentrations of 30 µM, 10 µM, 3 µM and 1 µM. Every concentration was tested in triplicates. Cells with corresponding amounts of DMSO served as negative controls. After 48 h cells were mixed and 25 µL of […]
(In general: In flow cytometry, cells or beads pass a laser one at a time.)

Data set [1] in a line: Prodrug-induced generation of ROS in cell free settings (DCFH/H2O2). The conditions noted are these: for ROS Release Efficacy: relative acceleration of the rate of DCFH fluorescence increase with H2O2, pH 7.4, FeSO4 = 1.0. From the text: As previously reported, the NAAF-prodrugs react with ROS like H2O2, first leading to the cleavage of the B-C-bond with the formation of the phenol derivatives (product 2c-1, Figure S49, SI). The latter compounds exist in equilibrium with the corresponding phenolates. The phenolates undergo the spontaneous 1,6-elimination of para-quinone methide (QM) followed by the release of CO2 with the formation of the N-alkylaminoferrocene NAAF drugs (product 2c-2, Figure S46, SI). By using electrospray ionization mass spectrometry (ESI–MS), we confirmed for one representative prodrug 2c that it reacts with H2O2 in cell free settings according to this common mechanism (ESI-MS, Figures S46–S48, SI). The NAAF is further oxidized by H2O2 or molecular oxygen with the generation of drug NAAF^+ and highly toxic HO• or/and O2^•−. Finally, the NAAF^+ is reduced by glutathione (GSH), thereby closing the catalytic cycle, in which the NAAF acts as a catalyst. We evaluated the formation of HO• or/and O2^•− by using 2′,7′-dichlorodihydrofluorescein (DCFH) as a probe (Table 1, Figure S49, SI). This probe is oxidized to the fluorescent product 2′,7′-dichlorofluorescein (DCF) in the presence of HO• or/and O2^•−. […] The lower activity of 2c and 2d correlates with their higher lipophilicity and their correspondingly higher propensity to form aggregates in aqueous solution (Figure S45, SI).
Prodrug-induced generation of ROS in cell free settings
2',7'-Dichlorodihydrofluorescein diacetate (DCFH-DA, 4.9 mg) was dissolved in DMF (100 μL) and mixed with aqueous NaOH (0.1 M, 900 μL). The resulting mixture was incubated for 30 min at 22 °C in the dark to obtain a stock solution of 2',7'-dichlorodihydrofluorescein (DCFH, 10 mM). Next, DCFH (1 µL ) was added to the solution containing MOPS buf fer (100 mM, pH 7.4), N,N,N'N' -e thylenediaminetetraacetic acid (EDTA , 10 mM) and glutathione (GSH , 5 mM) (1 mL, final concentration of DCFH 10 μM). The reaction mixture was heated to 37 °C and H2O2 (1 µL, final concentration 10 mM) was added. The reaction was monitored by fluorescence spectroscopy: λex = 501 nm, λem = 523 nm. After around 5 min, prodrugs (1 mM in DMF, 10 μL) or positive control FeSO4 (1 mM in water, 10 μL) were added, and the fluorescence monitoring was continued until the fluorescence signal growth was stalled after approximately 100 to 300 min. A representative kinetics of ROS […]
The data are presented in Table 1 as relative acceleration of the rate of the fluorescence increase, where the rate of the fluorescence increase obtained in the presence of positive control FeSO4 was set […]
y = a time + b (a = (dF/dt) , min-1)
Figure S49. Increase of the fluorescence intensity (λex = 501 nm, λem = 523 nm) upon oxidation of DCFH by H2O2 in the presence of FeSO4. Experimental details are provided in the description above. The time point of the FeSO4 addition is indicated with a black […]
(also on this page, place not known: ° C µL) buffer N,N,N'N'-ethylenediaminetetraacetic (EDTA, (GSH, ° C FeSO 4 (λ ex λ em Fluorescence (a.u.) (dF/dt)0, min -1 Addition of)
(1 picture or pasted object on this page, not shown here)

In another data set the test system is A2780 cells. Description: Accumulation of prodrugs in A2780 cells (atomic emission spectrometry of B, Fe). The format is cell-based, human. As to conditions: 5 µM, 4 h, Zn as internal standard, carrier = 1. How it is done: colored arrow. After the initial lagging period, the oxidation reactions reach their maximum […]
Accumulation of prodrugs in A2780 cells
A2780 cells (around 150 cells/µL, 40 mL) were seeded in T175 flasks (Greiner, Germany) in RPMI 1640 medium supplemented with 5% FBS, 1% L-glutamine, and 1% penicillin/streptomycin and incubated for 3-4 days at 37°C in the chamber filled with 5%
CO2. Next, a fresh portion of RPMI 1640 medium supplemented with 5% FBS, 1% L - glutamine, and 1% penicillin/streptomycin was added to replace old medium. Prodrugs ([…], 400 µL in DMSO, final concentration: 5 µM) or carrier (DMSO, 400 µL, final concentration: 1%. v/v) were added into the bottles and the cells were further incubated at 37°C for 4 h. The cells were washed with DPBS (2 x 10 mL) and trypsinated (trypsin/EDTA, 0.025%/0.01%, v/v, 2 mL). After the cells were harvested and centrifuged (5 min, 1000 rpm) in 50 mL falcon tube, the cell pellet was re-suspended in DPBS (1 mL), the suspension - transferred to 1.5 mL EP tube and centrifuged one more time (2 min, 2000 rpm). The obtained cell pellet was shaken with concentrated HNO3 (65%, 100 µL) in an Eppendorf Thermomixer for 10 min at 95° C, 600 rpm. […] The insoluble components were separated by centrifugation (30 min, 13000 rpm) and the supernatant was analyzed by atomic emission spectrometry (AES) for the detection of B, Zn and Fe. […]

`CC1(C)OB(c2ccc(COC(=O)N(Cc3cccc(CN4CCCCC4)c3)[c-]3cccc3)cc2)OC1(C)C.[Fe+2].c1cc[cH-]c1` [5b]: half-maximal inhibition in the data set with AsPC1 cells (IC50) required 6.7 ± 0.5 µM.
In the case of `CCOC(=O)CCCCCn1cc(CN(C(=O)OCc2ccc(B3OC(C)(C)C(C)(C)O3)cc2)[c-]2cccc2)nn1.[Fe+2].c1cc[cH-]c1` [compound 1], the “ROS Release Efficacy” value in data set [1] is given as 0.99 ± 0.16. Besides, the Relative iron amount in the data set with A2780 cells is 1.4 ± 0.1.
On to `CC1(C)OB(c2ccc(COC(=O)N(Cc3cn(Cc4ccc(Cn5cc(Cc6ccccc6)nn5)cc4)nn3)[c-]3cccc3)cc2)OC1(C)C.[Fe+2].c1cc[cH-]c1` [2c], for which the “ROS-generating activity, fold lower than that of 2a and 2b” value in data set [1] (cell free DCFH assay) is ~ 2 fold. Also, in data set [1], the “ROS Release Efficacy” value came to 0.35 ± 0.17. Further, the Relative iron amount with A2780 cells was 5.0 ± 0.1. For the same molecule, it took 7.1 ± 1 µM to reach half-maximal inhibition in the data set on AsPC1 cells (IC50).
